In assay [1] the test system is pCTD Ser5 in HCT116 cells. The experiment in a line: Phospho-carboxyl terminal domain (Ser5) p-CTD (S5) cell based Acumen assay. Particulars: read-out: Relative IC50 for pCTD Ser5. On the procedure: HCT116 cells (ATCC CCL-247) are cultured in McCoy’s 5A Medium Modified media supplemented with 10% FBS, 1% NaPyr, and 1% Pen/Strep and plated (prior to becoming 70% confluent) in 96-well flat-bottom plates at a density of 5,000 cells per well in 100 µL volume. The cells are incubated overnight in a cell culture incubator (5% CO2, 95% Relative Humidity (RH), and 37° C.) and allowed to attach to the plate. The following morning, the cells are dosed with compounds. Compound inhibitors are solubilized at 60 µM in culture medium containing 0.6% DMSO. Subsequently compound serial dilutions (1:3) are prepared over a 60 µM to 0.003 µM range. Cells are dosed with the addition of 50 µL from serial dilution plate to assay plate containing cell attached with 100 µL of media producing a final DMSO concentration of 0.2% with a final compound concentration dose range between 20 and 0.001 µM. For max point media containing 0.2% of DMSO is used and for min point, a reference compound diluted at 0.83 µM final concentration in the growth media containing 0.2% DMSO is used. After dosing with compounds, the cell plates are incubated at 37° C. and 5% CO2 for 4 hours. Growth media is removed carefully and the cells are fixed by adding 100 µL of 4% para-formaldehyde for 30 minutes at RT. Cell are washed once with PBS and incubated with 100 µL of cold MeOH for 15 minutes at RT for cell permeation. Again cells are washed twice with PBS (100 µL/each) and blocked with 100 µL/well of 1% BSA/PBS for 30 min at RT. 50 µL of 1:1000 primary antibody (Anti-phosphoCTD Ser5 Bethyl Laboratories cat# A300-655A) dilution in 1% BSA/PBS are added per well, the plates are sealed and incubated overnight at 4° C.
The following day cells are washed three times with PBS (100 µL/well) and incubated with 50 µL/well of secondary antibody (1:2000 dilution, Goat anti-rabbit IgM ALEXA FLUOR™ 488) in PBS for 1 hourr at room temperature. After washing 3× with PBS (100 µL/well), 100 µL, of 50 µg/mL RNAase (Sigma) and 1:1000 propidium iodide dilution in PBS are added per well. Plates are sealed and incubated for 1 hour at RT on the bench (preserved from light). Plates are analyzed on Acumen on FL2 (mean intensity), and FL3 (total intensity). Fluorescence plates are scanned with ACUMEN EXPLORER™ [Laser-scanning fluorescence microplate cytometer manufactured by TTP LABTECH LTD] to measure anti-phospho-carboxyl terminal domain at Serine 5 (pCTD). Image analysis is based on cellular fluorescent signals for identifying positive cells. pCTD (S5) positive cells are identified by mean intensity at 500-530 above the threshold. Total intensity at 575-640 from propidium iodide/DNA is used to identify individual cells. Assay output is % pCTD positive cells. The IC50 is determined by curve fitting to a four parameter logistic for each output using GENE DATA™.

Assay [2] deals with HCC1806 xenograft tumor model. The experiment in a line: Xenograft tumor model. It is filed as in vivo, female athymic nude mice. The conditions noted are these: QDx28, HCC1806 (KMT2C). The procedure: The purpose of this assay is to measure reduction in tumor volume in response to the compound of Example 1. To evaluate in vivo efficacy of a test compound, multiple xenograft tumor models are utilized. Briefly, 2.5 × 10^6 tumor cells in a 1:1 MATRIGEL® mix (0.2 mL total volume) are injected subcutaneously into the female athymic nude mice (Envigo, Harlan Laboratories). After allowing tumors to reach a desired size of ~300-500 mm^3, animals are randomized into groups of 5 for efficacy studies. Test compound is administered via oral gavage (PO) at indicated doses and regimens. Tumor growth and body weight are monitored over time to evaluate efficacy and signs of toxicity.
Test compound is formulated in 1% hydroxyethylcellulose, 0.25% polysorbate 80, 0.05% antifoam in purified water (HEC) and administered by oral gavage (final volume 0.2 mL) at the doses indicated in Table 2. A test compound is formulated on a weekly basis and stored at 4° C. Vehicles are administered to the control groups according the schedules used above using a volume of 0.2 mL per dose. Mice are dosed via oral gavage and tumor samples are collected at termination and stored at -80° C.
Tumor size and body weight are recorded and analyzed bi-weekly.
Delta T/C% is calculated when the endpoint tumor volume in a treated group is at or above baseline tumor volume. The formula is 100×(T-T0)/(C-C0). […]

In assay [3] the test system is panel of 468 human kinases. Description: DiscoverX KINOMEscan selectivity profiling, 468 kinase panel. Type of assay: binding. The conditions noted are these: CDK7 the only kinase with less than 35% control activity at 0.2 µM. On the procedure: The purpose of the study is to generate an in vitro selectivity profile of the compounds of Example 8. To address selectivity, the compound of Example 8 is tested in a panel of 468 human kinases at DiscoverX Corporation using the KINOMEscan™ screening platform. KINOMEscan™ employs a novel and proprietary active site-directed competition binding assay to quantitatively measure interactions between test compounds and more than 450 human kinases and disease relevant mutant variants.
Compounds that bind the kinase active site and directly (sterically) or indirectly (allosterically) prevent kinase binding to an immobilized ligand, will reduce the amount of kinase captured on the solid support. […] Compound activity is monitored by measuring the amount of kinase captured in test versus control samples by using a qPCR method that detects the associated DNA label. Further information regarding the DiscoverX Corporation KINOMEscan™ screening platform can be found at http://www.discoverx.com.
Assays to monitor binding to a 468 kinase panel were conducted at DiscoverXⓇ Corporation (Fremont, CA). Example 8 is tested at 20 µM, 2 µM, and 0.2 µM final concentrations. Kinases are tagged with DNA for qPCR detection. […] The kinase concentration in the eluates is measured by qPCR. […]

Results on 7 molecules are retold here after US20230203031A1, “COMPOUNDS USEFUL FOR INHIBITING CDK7” (Eli Lilly and Company, priority 2020, published 2023).

SMILES strings stand for the structures. Like-named read-outs stand apart in the source and are kept apart here.

`[2H]CC([2H])(C)c1cnc2c(NC3CCN(C[C@@H]4CN(C(=O)C=C)CCO4)CC3)cc(C(F)(F)F)cn12` (mixture of isomers) [Example 7, 1-[(2R)-2-[[4-[[3-[rac-1,2-dideuterio-1-methyl-ethyl]-6-(trifluoromethyl)imidazo[1,2-a]pyridin-8-yl]amino]-1-piperidyl]methyl]morpholin-4-yl]prop-2-en-1-one]: the IC50 in assay [1] (Homo sapiens, HCT-116, 4 h) was 71.7 nM.

With `C=CC(=O)N1CCO[C@H](CN2CCC(Nc3cc(C(C)F)cn4c(C(C)C)cnc34)CC2)C1` (single isomer, unassigned) [Example 1], the “Avg. ΔT/C” value in assay [2] (10 mg/kg PO) was 16.5%; in assay [2] (20 mg/kg PO) it was -38.0%. For the same molecule, the half-inhibitory concentration (IC50) in assay [1] (Homo sapiens, HCT-116, 4 h) is 161 nM.

Consider `C=CC(=O)N1CCO[C@H](CN2CCC(Nc3cc(C(C)F)cn4c(C(C)C)cnc34)CC2)C1` (single isomer, unassigned) [Example 2], for which the IC50 in assay [1] (4 hours) was found to be 162 nM.

`C=CC(=O)N1CCO[C@H](CN2CCC(Nc3cc(C(C)O)cn4c(C(C)C)cnc34)CC2)C1` (single isomer, unassigned) [Example 4]: in assay [1] (4 hours), the IC50 was 55.1 nM.

For `C=CC(=O)N1CCO[C@H](CN2CCC(Nc3cc(C(C)O)cn4c(C(C)C)cnc34)CC2)C1` (single isomer, unassigned) [Example 5], the IC50 in assay [1] (4 hours) stood at 118 nM.

As for `[2H]C([2H])=C([2H])C(=O)N1CCO[C@H](CN2CCC(Nc3cc(C(F)(F)F)cn4c(C(C)C)cnc34)CC2)C1` [Example 6, 2,3,3-trideuterio-1-[(2R)-2-[[4-[[3-isopropyl-6-(trifluoromethyl)imidazo[1,2-a]pyridin-8-yl]amino]-1-piperidyl]methyl]morpholin-4-yl]prop-2-en-1-one], the IC50 in assay [1] (Homo sapiens, HCT-116, 4 h) came to 15.9 nM.

Take `C=CC(=O)N1CCO[C@H](CN2CCC(Nc3cc(C(F)(F)F)cn4c(C(C)C)cnc34)CC2)C1` [Example 8, 1-[(2R)-2-[[4-[[3-isopropyl-6-(trifluoromethyl)imidazo[1,2-a]pyridin-8-yl]amino]-1-piperidyl]methyl]morpholin-4-yl]prop-2-en-1-one]: the IC50 in assay [1] (Homo sapiens, HCT-116, 4 h) was found to be 26.2 nM. In addition, the “selectivity against the 468 protein kinases panel” value in assay [3] was “excellent selectivity”.
